Source: patent US20110112299A1, “TETRACYCLIC COMPOUND” (KYOWA HAKKO KIRIN CO., LTD., priority 2008, published 2011)

Experiments:
[1] = test system: transcription-promoting activity via the glucocorticoid receptor (A549/MMTV-LTR cells); type: cell-based; conditions: at a concentration of 300 nmol/L; relative to dexamethasone
Description: A pGL4.14 plasmid (Promega, product number: AY864928) having a cloned MMTV-LTR fragment upstream of the luciferase gene (−200 to +100 relative to the transcription initiation site) was introduced into A549 cells, and the obtained strain which is constitutively resistant to a selective antibiotic hygromycin B (A549/MMTV-LTR) was used for evaluation. The A549/MMTV-LTR cells were transferred to a 96-well plate (25000 cells/well) and were cultured overnight. […] Next, 20 μL of the test compound diluted to 5-fold of the desired concentration with F-12 medium or 20 μL of 4 μmol/L dexamethasone was added thereto, and the mixture was incubated under 5% CO2 at 37° C. for 6 hours. To each well, 50 μL of a luminescence reagent (Promega, product number: E2550 or E2650) was added, and the mixture was stirred to dissolve the cells, and the luciferase activity was measured by a plate reader (PerkinElmer, TopCount).
MMTV activity (%)=100×(luminescence amount in the presence of the compound−luminescence amount in the absence of the compound)/(luminescence amount in the presence of dexamethasone−luminescence amount in the absence of the compound)

[2] = target: T1, recombinant human glucocorticoid receptor (Homo sapiens, UniProt P04150); test: Human glucocorticoid receptor assay (2) (fluorescence polarization, Test Example 5); type: binding; conditions: for selectivity for human glucocorticoid receptor over progesterone receptor: from the results of Test Examples 5 and 6
T1 construct: purchased Panvera/Invitrogen P2812 (kit P2893)
T1 sequence (P04150 1-777): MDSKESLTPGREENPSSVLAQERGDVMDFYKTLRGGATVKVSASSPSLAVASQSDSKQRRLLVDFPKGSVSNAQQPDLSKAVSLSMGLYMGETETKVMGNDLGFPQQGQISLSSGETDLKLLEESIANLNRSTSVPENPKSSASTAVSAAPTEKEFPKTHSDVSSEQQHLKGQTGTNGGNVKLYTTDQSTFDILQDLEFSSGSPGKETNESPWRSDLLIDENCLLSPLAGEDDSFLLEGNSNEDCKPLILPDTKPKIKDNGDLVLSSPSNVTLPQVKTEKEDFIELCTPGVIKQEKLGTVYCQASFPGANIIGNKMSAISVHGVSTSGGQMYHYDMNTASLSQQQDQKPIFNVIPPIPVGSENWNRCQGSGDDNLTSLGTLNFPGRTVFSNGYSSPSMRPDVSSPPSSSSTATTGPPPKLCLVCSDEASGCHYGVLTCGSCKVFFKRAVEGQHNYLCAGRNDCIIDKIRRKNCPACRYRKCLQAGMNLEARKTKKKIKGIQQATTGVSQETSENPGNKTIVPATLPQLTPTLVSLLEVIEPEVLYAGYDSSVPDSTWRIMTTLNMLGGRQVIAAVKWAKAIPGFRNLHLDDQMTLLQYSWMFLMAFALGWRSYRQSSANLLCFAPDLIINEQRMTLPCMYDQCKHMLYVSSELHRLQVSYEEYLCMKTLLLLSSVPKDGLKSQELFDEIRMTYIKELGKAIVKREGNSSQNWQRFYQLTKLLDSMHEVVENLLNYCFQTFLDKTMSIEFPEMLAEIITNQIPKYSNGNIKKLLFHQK
Description: In this assay, a fluorescence polarization assay kit (Panvera/Invitrogen, product number: P2893) was used. The recombinant human glucocorticoid receptor (product number: P2812), the Fluoromore (trademark)-labeled dexamethasone (GS Green, product number: P2813), the stabilizing peptide solution (product number: P2815), and the basic buffer solution (product number: P2814) which were used in the assay kit had been stored at −80° C. until used. A buffer solution for the assay was prepared by adding the basic buffer solution (10 fold dilution), the stabilizing peptide solution (10 fold dilution), and 1 mol/L DTT (dithiothreitol) (1000 fold dilution to give a final concentration of 1 mmol/L).
The assay was performed as follows. The test compound was diluted to 2-fold of the desired concentration with the buffer solution for the assay, and 16 μL of that was added to each well. Next, the Fluoromore (trademark)-labeled dexamethasone was diluted with the buffer solution for the assay so as to be 4 nmol/L, and 8 μL of that was added to each well. Further, the recombinant human glucocorticoid receptor was diluted with the buffer solution for the assay so as to be 16 nmol/L, and 8 μL of that was added to each well. After stirring the mixture, the mixture was incubated under a light-shielded condition at room temperature for 2 hours or more. The fluorescence polarization value of each well was measured using a plate reader (PerkinElmer, Fusion or Envision). To a negative control group, the compound was not added. To a positive control group, dexamethasone was added so as to give a final concentration of 1 μmol/L. The glucocorticoid receptor binding inhibitory rate (%) was calculated by the following formula.
Glucocorticoid receptor binding inhibitory rate (%)=100×[1−(fluorescence polarization value of test compound solution−fluorescence polarization value of positive control solution)/(fluorescence polarization value of negative control solution−fluorescence polarization value of positive control solution)]

[3] = test system: IL-1β induced IL-6 production (A549 cells); test: Inhibition assay for IL-1β induced IL-6 production in A549 cells (Test Example 3); type: cell-based, human; conditions: Homo sapiens, at a concentration of 100 nmol/L, IL-1β stimulation, relative to dexamethasone, read-out: IL-6 production inhibitory activity
Description: A549 cells cultured in F-12 medium supplemented with 10% bovine serum for 3 to 5 days were transferred to a 96-well plate (50000 cells/well) and then were cultured overnight. […] After the medium was removed by suction, 60 μL of F-12 medium was added to each well, and 20 μL of the test compound diluted to 5-fold of the desired concentration with F-12 medium or 20 μL of 4 μmol/L dexamethasone was added thereto. The test compound and the dexamethasone used here were prepared beforehand by dissolving in dimethyl sulfoxide (DMSO) and diluting with F-12 medium so that the final concentration of DMSO became 0.1% v/v or lower. After 30-minute incubation under 5% CO2 atmosphere at 37° C., 20 μL of 4 nmol/L IL-1β diluted with F-12 medium was added to each well, and then incubation was performed under a 5% CO2 atmosphere at 37° C. for 12 to 18 hours. The 96-well plate was centrifuged at 300×g at 4° C. for 5 minutes, and then the culture supernatant was collected for use as a sample for IL-6 measurement. The IL-6 produced in the culture supernatant was quantified by the ELISA method (R&D Systems, product number: DY206, DouSet ELISA Development System Human IL-6), and the production inhibition rate was calculated by the following formula. […]

| Structure (SMILES) | MMTV activity [1] [%] | selectivity for human glucocorticoid receptor over progesterone receptor [2] | further results |
| --- | --- | --- | --- |
| CC/C(=C1\c2cc3cnn(C(C)C)c3cc2COc2ccccc21)c1cccc(NS(C)(=O)=O)c1 [Compound 8, (Z)-5-{1-[3-(methanesulfonamide)phenyl]propylidene}-1-isopropyl-5,11-dihydro-1H-indazolo[5,6-e]benzo[b]oxepin] | 22 |  |  |
| CC/C(=C1\c2cc3cnn(C(C)C)c3cc2COc2ncccc21)c1cccc(NS(C)(=O)=O)c1 [Compound 25, (Z)-1-isopropyl-5-{1-[3-(methanesulfonamide)phenyl]propylidene}-5,11-dihydro-1H-indazolo[5,6-e]pyrido-[2,3-b]oxepin] |  | selective binding activity to human glucocorticoid receptors |  |
| C[C@]12C=CC(=O)C=C1CC[C@@H]1[C@@H]2[C@@H](O)C[C@@]2(C)[C@H]1CC[C@]2(O)C(=O)CO [prednisolone, reference compound] | ≥ 80 |  |  |
| CC/C(C(=O)Nc1nccs1)=C1\c2cc3cnn(-c4ccc(F)cc4)c3cc2COc2ccccc21 [Compound 89, (Z)-1-(4-fluorophenyl)-5-{1-[(thiazole-2-yl)aminocarbonyl]propylidene}-5,11-dihydro-1H-indazolo[5,6-e]benzo[b]oxepin] |  |  | inhibition at 0.1 µM ([2]; at a concentration of 100 nmol/L, read-out: glucocorticoid receptor binding inhibitory activity): ≥ 80%; inhibition at 0.1 µM [3]: ≥ 80% |
| CC/C(=C1\c2cc3cnn(C4CC4)c3cc2COc2ncccc21)c1cccc(NS(C)(=O)=O)c1 [Compound 34, (Z)-1-cyclopropyl-5-{1-[3-(methanesulfonamide)phenyl]propylidene}-5,11-dihydro-1H-indazolo[5,6-e]pyrido[2,3-b]oxepin] | 25 | selective binding activity to human glucocorticoid receptors |  |
| CC/C(=C1\c2cc3cnn(-c4ccc(F)cc4)c3cc2COc2ncccc21)c1cccc(NS(C)(=O)=O)c1 [Compound 43, (Z)-1-(4-fluorophenyl)-5-{1-[3-(methanesulfonamide)phenyl]-propylidene}-5,11-dihydro-1H-indazolo[5,6-e]pyrido[2,3-b]oxepin] |  | selective binding activity to human glucocorticoid receptors |  |
| C[C@@H]1C[C@H]2[C@@H]3CCC4=CC(=O)C=C[C@]4(C)[C@@]3(F)[C@@H](O)C[C@]2(C)[C@@]1(O)C(=O)CO [dexamethasone, reference compound] | ≥ 100 |  |  |
